Results taken from paper PMC3162996 (Journal of natural products, 2011).
“Also recorded” adds a separate entry of the source.

Columns and labels:
[1] = system: transcription factor AP-1; test: AP-1 assay; format: cell-based; details: HEK293T AP-1 β-lactamase reporter; 1 h pre-incubation, then TPA, 18 h
[2] = Floridian collections of Lyngbya confervoides; ref [6],[7]; cited from earlier work

Row | Substance | inhibitory activity against AP-1 (in words) [1] | cytotoxicity (in words) [2]
1 | Grassypeptolide F [compound 1] | moderately active; also recorded: moderate inhibitory activity | 
2 | grassypeptolide C [compound 5] |  | cytotoxic
3 | Grassypeptolide G [compound 2] | moderately active; also recorded: moderate inhibitory activity | 
